Measured values: US20110077270A1, “Compositions and Methods for Treating Ocular Inflammation with Lower Risk of Increased Intraocular Pressure” (priority 2009, published 2011)
Values joined by “and” are separate entries in the source; they are usually repeats but may differ in a detail not shown here. Equal values may be shown once.

What was measured:
[1] = tested on: protein concentration in the aqueous humor; assay: Protein measurement in aqueous humor, rabbit paracentesis model; format: in vivo; settings: for Protein level in aqueous humor, Mean / Protein level in aqueous humor: second paracentesis; for Protein level in aqueous humor, Mean: group mean; for Protein level in aqueous humor: individual eye
Experimental: (§1) Each rabbit was placed in a restraint device and tagged with the alphanumeric code. The formulations were instilled (50 μl) into the conjunctival sac of both eyes 180, 120, 90 and 30 min before the first paracentesis; then 15, 30, 90 min after the first paracentesis. To perform the first paracentesis the animals were anaesthetized by intravenous injection of 5 mg/kg Zoletil® (Virbac; 2.5 mg/kg tiletamine HCl and 2.5 mg/kg zolazepam HCl) and one drop of local anesthetic (Novesina®, Novartis) was administered to the eye. Anterior chamber paracentesis was performed with a 26 G needle attached to a tuberculin syringe; the needle was introduced into the anterior chamber through the cornea, taking care not to damage the tissues. Two hours after the first paracentesis, the animals were sacrificed with 0.4 ml Tanax® (Intervet International B.V.) and the second paracentesis was performed. About 100 μl of aqueous humor were removed at the second paracentesis. Aqueous humor was immediately split in four aliquots and stored at −80° C. until analysis. Then both eyes were enucleated and the iris-ciliary body was carefully excised, placed in polypropylene tubes, and stored at −80° C. until analysis.
For protein concentration determination in the aqueous humor we used the Protein Quantification Kit (Fluka; Cat. No. 77371; Lot. No. 1303129). Five microliters of aqueous humor were diluted to 100 μl with water. Twenty microliters of samples and of standards were load into a 96-well plate and recorded in a plate layout. Samples were treated following the assay procedure described in the kit. A microplate reader (GDV, Italy; model DV 990 B/V6) set at 670 nm was used for making the calibration and analyzing the samples.

[2] = tested on: myocilin mRNA in monkey TM cells; assay: Myocilin mRNA expression in monkey TM cells (qRT-PCR); format: cell-based, rhesus monkeys (Macaca mulatta); settings: for EC50: expression of myocilin mRNA, weighted averages, two dose-response studies each using two monkey TM cell strains
Experimental: For each study, up to nine TM cell strains, each derived from an individual monkey, were tested separately. Cells were thawed and seeded into 12- or 48-well clusters (Falcon, BD Biosciences; 150,000 and 30,000 cells/well, respectively) in proliferation medium. When cells were 75% to 90% confluent proliferation medium was replaced by a 5:4 mixture of HESFM and Dulbecco's MEM, respectively, supplemented with 10% FBS, with added taurine, ascorbic acid phosphate, glutathione, and antibiotic as for proliferation medium (above), and with 2.72 g/L glucose and 1.72 g/L fructose. At confluence, the medium was changed to Dulbecco's MEM, containing 10% FBS^40, ascorbic acid phosphate, antibiotic, 2.72 g/L glucose and 1.72 g/L fructose. Cells were maintained as stable, confluent monolayers in this latter medium for 4 to 7 days before experimental treatments commenced.
After quantification of purified total RNA (Quant-iT RNA Assay kit, Molecular Probes, Eugene, Oreg.), equivalent amounts of this RNA were apportioned to generate first-strand cDNAs for each treatment sample, using random primers, (Affinity Script, Stratagene, La Jolla, Calif.). Oligonucleotide myocilin primers, designed based on the cynomolgus MYOC gene, and fluorescent Taqman probe (Applied Biosystems, Foster City, Calif.) were used for PCR amplification. Equal amounts of total RNA-equivalent mass (approximate range […]) reactant cDNA were added to the PCR Master Mix (Stratagene) and myocilin primers/Taqman probe. Amplification was performed in a thermocycler (Mx3005P, Stratagene), with an initial denaturation step at 95° C. for 10 min, followed by 40 cycles of 95° C. for 15 sec and 60° C. for 1 min for extension. Every run included standard controls (i.e., either without reverse transcriptase or lacking template). Relative quantities of myocilin mRNA abundance were determined using differences in threshold cycles (“Ct”) between vehicle control and drug treatments. Each sample was analyzed in triplicate wells, and the corresponding values averaged for further quantitative analysis. Myocilin mRNA abundance, expressed in proportion to vehicle control-treated samples, was calculated using the Mx3005P software.
Data underwent Box-Cox transformations for one- or two-way analysis of variance (ANOVA), followed by the Tukey-Kramer test, using JMP software (SAS, Cary, N.C.). The specific transformations used for analyses are mentioned in the figure legends. For each set of triplicate samples from the individual monkey TM cell strains tested, Western blot densitometry values for myocilin protein detected in CM (as geometric means), and relative abundance of myocilin mRNA (as geometric means), were plotted as a function of drug concentrations. P-values less than 0.05 were considered statistically significant. […]

[3] = tested on: rabbit paracentesis model; assay: Pupillary diameter measurement, rabbit paracentesis model; format: in vivo; settings: individual eye; for Pupillary diameter T1: −180 min: 50 μl drops, basal; for Pupillary diameter T2: −5 min: 5 min before first paracentesis; for Pupillary diameter T3: +115 min: 5 min before second paracentesis; for Pupillary diameter Δ(T3 − T1): +115 min minus −180 min
Experimental: as §1
The pupillary diameter of both eyes was measured with a Castroviejo caliper 180 min and 5 min before the first paracentesis and 5 min before the second paracentesis.

[4] = tested on: leukocytes (PMN) in aqueous humor; assay: Leukocytes (PMN) measurement in aqueous humor, rabbit paracentesis model; format: in vivo; settings: second paracentesis; for PMN numbers in aqueous humor, Mean: group mean; for PMN numbers in aqueous humor: individual eye
Experimental: as §1
For the determination of the number of leukocytes we used a haemocytometer (Improved Neubauer Chamber; Bright-line, Hausser Scientific) and a Polyvar 2 microscope (Reichert-Jung).

[5] = tested on: MPO activity in iris-ciliary body; assay: Myeloperoxidase (MPO) activity in iris-ciliary body, rabbit paracentesis model; format: in vivo; settings: for MPO Unit/g: iris-ciliary body samples collected after the second paracentesis, individual eye samples; for MPO activity in iris-ciliary body, Mean: after second paracentesis, group mean
Experimental: as §1
The activity of MPO was measured as previously described by Williams et al.[5] The iris-ciliary bodies were carefully dried, weighed and immersed in 1 ml of hexa-decyl-trimethyl-ammonium bromide solution. Then, the samples were sonicated for 10 sec on ice by a ultrasound homogenizer (HD 2070, Bandelin electronic), freeze-thawed three times, sonicated for 10 sec and centrifuged at 14,000 g for 10 min to remove cellular debris. An aliquot of the supernatant ([…] was diluted to 3 ml with the o-dianisidine 2HCl/H2O2 solution. The change in absorbance at 460 nm was continuously monitored for 5 min by a spectrophotometer (UV/Vis Spectrometer Lambda EZ 201; Perkin Elmer). The slope of the line (Δ/min) was determined for each sample and used to calculate the number of units of MPO in the tissue as follows:
were ε=11.3 mM^−1. Values were expressed as units of MPO/g of tissue.

[6] = 0.1% topical formulation, listed as BOL
[7] = 0.5% topical formulation, listed as BOL
[8] = 1% topical formulation, listed as BOL

Cc1ccc2c(NCC(O)(CC(C)(C)c3cc(F)cc4c3OCC4)C(F)(F)F)cccc2n1 (stereo not drawn) [BOL-303242-X]
Protein level in aqueous humor, Mean ([1]; 0.1% topical formulation): 33.667 mg/mL
Protein level in aqueous humor [1, 6]: 34.87 mg/mL and 34.41 mg/mL and 31.14 mg/mL and 22.82 mg/mL and 29.46 mg/mL and 31.69 mg/mL and 35.70 mg/mL and 49.25 mg/mL
Protein, p vs CTR ([1]; 0.5% topical formulation): < 0.05
Protein level in aqueous humor, Mean ([1]; 0.5% topical formulation): 28.844 mg/mL
Protein level in aqueous humor [1, 7]: 33.98 mg/mL and 33.65 mg/mL and 19.99 mg/mL and 27.11 mg/mL and 19.72 mg/mL and 36.35 mg/mL and 27.71 mg/mL and 32.24 mg/mL
Protein level in aqueous humor, Mean ([1]; 1% topical formulation): 21.435 mg/mL
Protein level in aqueous humor [1, 8]: 20.99 mg/mL and 21.48 mg/mL and 15.11 mg/mL and 20.28 mg/mL and 20.94 mg/mL and 21.89 mg/mL and 20.03 mg/mL and 30.76 mg/mL
Myocilin mRNA abundance compared with DEX ([2]; 3 to 300 nM): significantly lower mRNA abundance values at all doses compared with DEX
Emax at 0.3 µM ([2]; Primates, read-out: Maximal efficacy for myocilin mRNA expression, relative to DEX, 300 nM, single monkey TM cell strain (FIG. 5)): ~67%
EC50 ([2]; Primates): 20.8 ± 2.74 nM
Pupillary diameter T1: −180 min [3, 6]: 6.5 mm (4×) and 7.0 mm (3×) and 7.5 mm
Pupillary diameter T2: −5 min [3, 6]: 6.5 mm (3×) and 7.0 mm (4×) and 7.5 mm
Pupillary diameter T3: +115 min [3, 6]: 5.0 mm (2×) and 6.0 mm (3×) and 6.5 mm and 5.5 mm (2×)
Pupillary diameter Δ(T3 − T1) [3, 6]: −1.5 mm (4×) and −0.5 mm (2×) and −1.0 mm (2×)
Pupillary diameter T1: −180 min [3, 7]: 8.0 mm (3×) and 7.0 mm (3×) and 7.5 mm (2×)
Pupillary diameter T2: −5 min [3, 7]: 8.0 mm (3×) and 7.0 mm (4×) and 7.5 mm
Pupillary diameter T3: +115 min [3, 7]: 6.5 mm (4×) and 6.0 mm (2×) and 7.0 mm (2×)
Pupillary diameter Δ(T3 − T1) [3, 7]: −1.5 mm (2×) and −0.5 mm (2×) and −1.0 mm (4×)
Pupillary diameter T1: −180 min [3, 8]: 6.0 mm (3×) and 6.5 mm (5×)
Pupillary diameter T2: −5 min [3, 8]: 6.0 mm (2×) and 6.5 mm (4×) and 7.0 mm (2×)
Pupillary diameter T3: +115 min [3, 8]: 5.5 mm (2×) and 5.0 mm (4×) and 6.0 mm (2×)
Pupillary diameter Δ(T3 − T1) [3, 8]: −0.5 mm (3×) and −1.5 mm (2×) and −1.0 mm (3×)
PMN numbers in aqueous humor, Mean ([4]; 0.1% topical formulation): 28.333 number/μl
PMN numbers in aqueous humor [4, 6]: 20 number/μl (4×) and 40 number/μl and 50 number/μl
PMN numbers in aqueous humor, Mean ([4]; 0.5% topical formulation): 21.250 number/μl
PMN numbers in aqueous humor [4, 7]: 40 number/μl (2×) and 20 number/μl (3×) and 10 number/μl (3×)
PMN numbers in aqueous humor, Mean ([4]; 1% topical formulation): 28.750 number/μl
PMN numbers in aqueous humor [4, 8]: 30 number/μl (3×) and 20 number/μl (3×) and 40 number/μl (2×)
MPO Unit/g ([5]; 0.1% BOL, listed as BOL): 1.04 Unit/g and 1.00 Unit/g and 1.14 Unit/g and 1.06 Unit/g and 1.22 Unit/g and 0.61 Unit/g and 1.05 Unit/g and 0.65 Unit/g
MPO activity in iris-ciliary body, Mean ([5]; 0.1% topical formulation): 0.971 MPO Unit/g
Activity in rabbit paracentesis model (preliminary conclusion) ([5]; 0.1%, 0.5%, 1% topical formulations, overall conclusion across biomarkers): active in this model
MPO Unit/g ([5]; 0.5% BOL, listed as BOL): 0.85 Unit/g and 0.93 Unit/g and 0.79 Unit/g and 1.03 Unit/g and 0.75 Unit/g and 0.74 Unit/g and 0.54 Unit/g and 0.58 Unit/g
MPO activity in iris-ciliary body, Mean ([5]; 0.5% topical formulation): 0.775 MPO Unit/g
MPO Unit/g ([5]; 1% BOL, listed as BOL): 0.66 Unit/g and 0.68 Unit/g and 0.49 Unit/g and 0.40 Unit/g and 0.34 Unit/g and 1.02 Unit/g and 0.31 Unit/g and 0.43 Unit/g
MPO activity in iris-ciliary body, Mean ([5]; 1% topical formulation): 0.542 MPO Unit/g

C[C@@H]1C[C@H]2[C@@H]3CCC4=CC(=O)C=C[C@]4(C)[C@@]3(F)[C@@H](O)C[C@]2(C)[C@@]1(O)C(=O)CO [Dex, dexamethasone, reference compound]
Protein level in aqueous humor, Mean ([1]; 0.1% topical formulation): 33.457 mg/mL
Protein level in aqueous humor ([1]; 0.1% topical formulation): 31.31 mg/mL and 31.81 mg/mL and 35.95 mg/mL and 37.15 mg/mL and 32.12 mg/mL and 32.40 mg/mL
EC50 ([2]; Primates): 14.7 ± 1.27 nM
Pupillary diameter T1: −180 min ([3]; 0.1% topical formulation): 6.0 mm and 7.0 mm (2×) and 5.5 mm (2×) and 6.5 mm (3×)
Pupillary diameter T2: −5 min ([3]; 0.1% topical formulation): 5.5 mm and 6.5 mm (3×) and 6.0 mm (2×) and 7.0 mm and 7.5 mm
Pupillary diameter T3: +115 min ([3]; 0.1% topical formulation): 5.5 mm (3×) and 6.0 mm (2×) and 4.5 mm and 5.0 mm and 6.5 mm
Pupillary diameter Δ(T3 − T1) ([3]; 0.1% topical formulation): −0.5 mm (3×) and −1.5 mm (2×) and 0.5 mm and 0.0 mm and −2.0 mm
PMN numbers in aqueous humor ([4]; 0.1% topical formulation): 20 number/μl (3×) and 50 number/μl and 40 number/μl and 30 number/μl
MPO Unit/g ([5]; 0.1% Dex): 0.71 Unit/g and 0.60 Unit/g and 1.32 Unit/g and 0.48 Unit/g (2×) and 0.39 Unit/g and 0.45 Unit/g and 0.51 Unit/g
MPO activity in iris-ciliary body, Mean ([5]; 0.1% topical formulation): 0.618 MPO Unit/g
